Test results as given in ChEMBL document CHEMBL6127128, “Discovery of the First-in-Class Dual-Target ROCK/HDAC Inhibitor with Potent Antitumor Efficacy in Vivo That Trigger Antitumor Immunity” (J Med Chem, 2024).
Calls of active or inactive are those of the source. The rule behind the calls is not given here.

How the values were obtained:
4T1 [1] = test: Cytotoxicity against mouse 4T1 cells assessed as reduction in cell viability; format: functional, cell-based
[2] = Tmax in Balb/c mouse at 1 mg/kg, iv measured for 24 hrs by LC-MS/MS analysis; format: ADME, organism-based; details: in vivo
Mus musculus = test: Induction of immunogenic cell death-associated DAMP release in tumor of Balb/c mouse implanted with mouse 4T1 cells assessed as extranuclear diffusion of HMGB1 by measuring decrease in red fluorescence aggregates at 25 to 50 mg/kg, po administered daily for 15 days by immunofluorescence analysis; format: functional, organism-based; details: dose 25-50 mg/kg, time 15.0 day
4T1 [3] = test: Antitumor activity against mouse 4T1 cells implanted in Balb/c mouse assessed as inhibition of tumor growth rate at 25 mg/kg, po administered daily for 15 days; format: functional; details: 4T1, 360 h, time 15 day, read-out: TGI
[4] = Chemical stability of the compound in PBS buffer at pH 7.4 measured after 10 days; format: physicochemical; details: time 10 day, read-out: Stability

Tmax [2]: 4.8 min
remaining at 240 h [4]: 98.5%
SMILES: O=C(CCCCCCNC(=O)c1cc2cc(-c3cn[nH]c3)ccc2s1)NO
IC50 (4T1 [1]): 730 nM
Activity (Mus musculus): Active
inhibition in vivo at 25 mg/kg (4T1 [3]): 45%
